From patent US7576082B2, “Oxindole derivatives” (Hoffman-La Roche Inc., priority 2005, dated 2009) come the findings set out here.

Chain of interaction between p53 and MDM2 proteins (Q00987 whole entry): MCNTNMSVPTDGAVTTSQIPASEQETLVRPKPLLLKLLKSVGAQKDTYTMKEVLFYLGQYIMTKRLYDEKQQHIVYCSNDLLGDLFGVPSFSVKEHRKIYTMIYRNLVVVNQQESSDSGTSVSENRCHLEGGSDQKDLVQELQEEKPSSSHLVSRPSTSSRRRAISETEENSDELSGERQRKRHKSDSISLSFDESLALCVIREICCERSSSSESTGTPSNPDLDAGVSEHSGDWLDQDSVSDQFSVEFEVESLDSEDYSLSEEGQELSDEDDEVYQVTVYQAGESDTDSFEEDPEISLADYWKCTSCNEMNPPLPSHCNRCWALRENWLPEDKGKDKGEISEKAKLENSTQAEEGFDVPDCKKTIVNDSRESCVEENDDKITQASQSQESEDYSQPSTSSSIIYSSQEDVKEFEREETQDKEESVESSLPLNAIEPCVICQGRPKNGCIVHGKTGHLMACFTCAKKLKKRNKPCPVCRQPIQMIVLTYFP

This assay addresses interaction between p53 and MDM2 proteins (Homo sapiens, UniProt Q00987). The experiment in a line: HTRF assay of inhibition of the interaction between p53 and MDM2 proteins (GST-MDM2 / biotinylated p53 peptide). It is filed as binding. The note with it: recombinant GST-tagged MDM2, biotinylated p53 peptide, 37° C. for 1 h. How it is done: […], the ability of the compounds to inhibit the interaction between p53 and MDM2 proteins was measured.
The ability of the compounds to inhibit the interaction between p53 and MDM2 proteins was measured by an HTRF (homogeneous time-resolved fluorescence) assay in which recombinant GST-tagged MDM2 binds to a peptide that resembles the MDM2-interacting region of p53 (Lane et al.). Binding of GST-MDM2 protein and p53-peptide (biotinylated on its N-terminal end) is registered by the FRET (fluorescence resonance energy transfer) between Europium (Eu)-labeled anti-GST antibody and streptavidin-conjugated Allophycocyanin (APC).
Test is performed in black flat-bottom 384-well plates (Costar) in a total volume of 40 uL containing: 90 nM biotinylate peptide, 160 ng/ml GST-MDM2, 20 nM streptavidin-APC (PerkinElmerWallac), 2 nM Eu-labeled anti-GST-antibody (PerkinElmerWallac), 0.2% bovine serum albumin (BSA), 1 mM dithiothreitol (DTT) and 20 mM Tris-borate saline (TBS) buffer as follows: Add 10 uL of GST-MDM2 (640 ng/ml working solution) in reaction buffer to each well. Add 10 uL diluted compounds (1:5 dilution in reaction buffer) to each well, mix by shaking. Add 20 uL biotinylated p53 peptide (180 nM working solution) in reaction buffer to each well and mix on shaker. Incubate at 37° C. for 1 h. Add 20 uL streptavidin-APC and Eu-anti-GST antibody mixture (6 nM Eu-anti-GST and 60 nM streptavidin-APC working solution) in TBS buffer with 0.2% BSA, shake at room temperature for 30 minutes and read using a TRF-capable plate reader at 665 and 615 nm (Victor 5, Perkin ElmerWallac). If not specified, the reagents were purchased from Sigma Chemical Co.
In the case of `O=C1Nc2cc(Cl)ccc2C1(Cc1ccccc1)C1CCCC1` (racemic) [Example 3C, rac-3-Benzyl-6-chloro-3-cyclopentyl-1,3-dihydro-indol-2-one], the IC50 amounted to 5380 nM. In the case of `COc1cccc(C2(Cc3cccc(Cl)c3)C(=O)Nc3cc(Cl)ccc32)c1` (racemic) [Example 9, rac-6-Chloro-3-(3-chloro-benzyl)-3-(3-methoxy-phenyl)-1,3-dihydro-indol-2-one] it was 460 nM. In the case of `COc1cccc(C2(Cc3ccccc3)C(=O)Nc3cc(Cl)ccc32)c1` (racemic) [Example 6C, rac-3-Benzyl-6-chloro-3-(3-methoxy-phenyl)-1,3-dihydro-indol-2-one] it was 9490 nM.

On to `COc1cccc([C@]2(Cc3cccc(Cl)c3)C(=O)Nc3cc(Cl)ccc32)c1` (single isomer, unassigned) [Example 13], for which the half-inhibitory concentration (IC50) is 280 nM.

What is called IC50 is the midpoint of a concentration-inhibition curve.
